Data as given in patent publication US20220117920A1, “N-Aryl Benzenesulfonamides as Protonophores for the Treatment of Cancers, Metabolic Diseases and Traumatic Brain Injury” (University of Kentucky Research Foundation, priority 2019, published 2022).

Legend:
Wnt signaling [1] = experiment: Wnt reporter assay, stable HEK293T cell line containing TOPFlash reporter, LiCl-activated; format: cell-based, human
Text: (§1) To identify novel Wnt regulators by high throughput screening, a stable HEK293T cell line containing the TOPFlash reporter was established. To identify Wnt inhibitors that targeted molecular events downstream of β-catenin, we treated these cells with lithium chloride to inhibit GSK3 and to stabilize β-catenin. […] We also validated the results by transient transfection of Super 8× TOPFlash or 8× FOPFlash into HEK293T cells. […] Since the results from the stable and transient transfection are compatible, we used stable cell lines for all of the other experiments.
(§2) Reporter assay. Wnt reporter assay and cell staining assay have been described previously. We subcloned Super 8×TOPFlash (provided by Professor Randall Moon, University of Washington) into the pGL4.83 [hRlucP/Puro] Vector and transfected it into HEK293T cells. A stable HEK293T cell line containing the TOPFlash reporter was established using puromycin selection. To screen Wnt inhibitors that block the downstream signaling transduction pathway of β-catenin, we treated the reporter cells with 25 mM LiCl to stabilize β-catenin and activate Wnt signaling. The potential Wnt inhibitors identified from screening were validated by transfecting TOPFlash or FOPFlash plus control renilla reporters into HEK293T cells, and then treating the cells with DMSO or testing compounds in DMSO solution. The Wnt signaling was activated by LiCl or Wnt3A treatment.

AMPK = experiment: Western blot of AMPK (T172) and ACC (S79) phosphorylation in CRC cells; format: cell-based, human; settings: for AMPK activation: concentration not given; for AMPK activity (T172 phosphorylation) / ACC (S79 phosphorylation): 3 μM
Experimental: (§3) Biochemistry. Western blotting: Cells were lysed in the appropriate volume of lysis buffer: 50 mM HEPES, 100 mM NaCl, 2 mM EDTA, 1% (v/v) glycerol, 50 mM NaF, 1 mM Na3VO4, 1% (v/v) Triton X-100, with protease inhibitors. The following antibodies were used: AMPK (Cell Signaling, 2532, Cell Signaling Technologies, Danver, Mass., USA), pAMPK (Cell Signaling, 2535), ACC (Cell Signaling, 3676), pACC (Cell Signaling, 11818), Actin (Sigma, A1978). Antibodies for Axin 2, c-Myc and Cyclin D1 have been described previously. ATP analysis: Cells growing in 12-well plates were treated with DMSO or inhibitors in DMSO solution and lysed by adding 1 mL boiling doubly distilled water. Supernatants were analyzed by luminescence using ATP Determination Kit (Invitrogen, A22066; Thermo Fisher Scientific, Waltham, Mass., USA).

[2] = tested on: mitochondrial ATP production; experiment: Agilent Seahorse XF Real-Time ATP Rate Assay; format: cell-based, human
Experimental: Seahorse assay. Approximately 3×10^4 cells were seeded in XF96 Cell Culture microplate (80 μL of 3.75×10^5 cells/mL) for all experiments. On the next day, cell culture media were replaced with either Seahorse XF modified media with 25 mM glucose and 1 mM pyruvate. After media exchange, cells were treated with 1 μM of oligomycin A, 1.0 μM FCCP and mixture of 1.0 μM of rotenone and 1.0 μM of antimycin A in standard mitochondrial stress test conditions. To determine the uncoupler effects, FCCP was replaced with an equal volume of DMSO, or a compound to be tested in DMSO solution. ATP production rate was analyzed using Agilent Seahorse XF Real-Time ATP Rate Assay.

DLD-1 cells = experiment: Seahorse uncoupling assay (OCR) in DLD-1 cells; format: cell-based, human; settings: for oxidative phosphorylation: data not shown
[3] = tested on: purified mitochondria from mouse liver; experiment: Uncoupling assay (OCR) using purified mitochondria from mouse livers; format: biochemical
Experimental: All the steps were carried out at 4° C. or on ice. After mice were euthanized with CO2 followed by rapid decapitation, whole liver was quickly dissected out on a cold block and homogenized using a Teflon-glass dounce homogenizer containing isolation buffer (215 mM mannitol, 75 mM sucrose, 0.1% BSA, 20 mM HEPES, 1 mM EGTA, adjusted to pH 7.2 with KOH). The homogenate was transferred to a 2 mL-microcentrifuge tube and spun at 1,300×g for 3 min. The supernatant was transferred to a fresh 2 mL-microcentrifuge tube and spun at 13,000×g for 10 min. The supernatant was discarded, and the crude mitochondrial pellet was resuspended in a 1.5 mL-microcentrifuge tubes and pelleted again at 10,000×g for 10 min. The supernatant was discarded, and the mitochondrial pellets were resuspended in isolation buffer to obtain an approximate concentration ≥10 mg/mL of mitochondria. The absolute protein concentration was determined using a bicinchoninic acid (BCA) protein assay kit (Pierce, Cat #23,227) by recording absorbance at 560 nm on a Biotek Synergy HT plate reader (Winooski, Vt., USA).
Mitochondrial Bioenergetics Measurements. Mitochondrial bioenergetic measurements were carried out using a Seahorse XFe96 Extracellular Flux Analyzer (Agilent Technologies, Santa Clara, Calif., USA) to measure oxygen consumption rate (OCR) during various states of respiration. The OCR were measured in the presence of different substrates, inhibitors and uncouplers of the electron transport chain using previous methods with slight modifications. The stocks used for the assays were 500 mM pyruvate, 250 mM malate, and 30 mM adenosine diphosphate (ADP), and 1 M succinate (pH for all was adjusted to 7.2). […] Stock solutions of FH535, Y3, FH535-M, and Y3-M were prepared at 5 mM in 100% DMSO. As per the instructions from XFe96 Extracellular Flux kit, the sensor cartridge was hydrated with water and kept at 37° C. overnight before the experiment. One hour before the assay was conducted, water was removed from assay plates and XF calibrant was added before re-incubation. The injection ports A to D of the sensor cartridge were loaded with 25 μL of different combinations of the above substrates/inhibitors/uncouplers as follows. Before loading, the stocks were diluted appropriately in the respiration buffer (RB) (125 mM KCl, 0.1% BSA, 20 mM HEPES, 2 mM MgCl2, and 2.5 mM KH2PO4; pH 7.2) to get the final concentrations in the respiration chamber of 5 μM pyruvate, 2.5 μM malate, 10 μM of succinate and 1 μM ADP (via Port A), 1 μM oligomycin A (via Port B), 4 μM FCCP or 5 μM/1 μM FH535 or 5 μM/1 μM Y3 or 5 μM/1 μM FH535-M or 5 μM/1 μM Y3-M (via Port C) and 0.1 μM antimycin A (via Port D) starting with the initial volume of 175 μL RB in the chamber and diluting it to 9×, 10×, 11× and 12× with every injection through ports A to D, respectively. Once loaded, the sensor cartridge was placed into the Seahorse XFe96 Flux Analyzer for automated calibration. Seahorse Standard XFe96 assay plates were used for loading mitochondria. Initially total mitochondria were diluted to 6 μg/30 μL in RB and 30 μL was loaded in each well resulting in 6 μg mitochondria/well. The assay plates were centrifuged at 3,000 rpm for 4 min at 4° C. to adhere liver mitochondria at the bottom of the wells. After centrifugation, 145 μL RB (pre-incubated to 37° C.) was added without disturbing the mitochondrial layer to obtain a final volume of 175 μL per well. […]

Wnt signaling [4] = experiment: Transient transfection of Super 8× TOPFlash or 8× FOPFlash into HEK293T cells; format: cell-based, human
Text: as §1
as §2, with “The Wnt signaling was activated by LiCl or Wnt3A treatment.” left out

[5] = tested on: LS174T and DLD-1 CRC cells; experiment: Cell proliferation assay in colon cancer cells; format: cell-based, human
Experimental: Cell culture. LS174T colon cancer cells were cultured in EMEM (ATCC, 30-2003) containing 10% (v/v) Fetal Bovine Serum (Sigma F0926, Sigma Aldrich Corp., St. Louis, Mo., USA). The DLD-1, SW480 and SW620 colon cancer cells were cultured in DMEM (Sigma D6429) containing 10% (v/v) Fetal Bovine Serum (Sigma, F0926). For proliferation assays, cells (3.5×10^4 cells per well) were split into 12-well plates. After 24 h, 1 μL of each compound in DMSO solution were added to each well. DMSO was used as a control. Each experiment was done in triplicate. Cell viability and number were analyzed using the Vi-Cell XR Cell Viability Analyzer (Beckman Coulter, Indianapolis, Ind., USA).

Wnt target genes = experiment: Western blot of Wnt signaling components and downstream targets in CRC cell lines; format: cell-based, human; settings: three CRC cell lines
Experimental: as §3

[6] = tested on: mitochondrial membrane potential; experiment: Mitochondria membrane potential assay (TMRM staining); format: cell-based, human; settings: FTU-11 at 3 μM
Experimental: Mitochondria Membrane potential assay: DLD-1 and LS174T cells were plated onto 24-well plates and maintained in DMEM (DLD-1) and RPMI1640 (LS174T) with 10% (v/v) (DLD-1) and 5% (v/v) (LS174T) serum for one day. The cells were treated with DMSO or a testing compound in DMSO solution for 2 h, followed by staining with 100 nM tetramethylrhodamine methyl ester perchlorate (TMRM) (Cayman Chemical Company, MI, USA) for 15 min. Cells were rinsed once with PBS and then observed under fluorescence microscopy at 568 nm.

LS174T cells = experiment: ATP analysis (luminescence) in LS174T cells; format: cell-based, human; settings: 10 mM
Experimental: as §3

N#CC(C#N)=NNc1ccc(OC(F)(F)F)cc1 [FCCP, N-(4-(trifluoromethoxy)phenyl)carbonohydrazonoyl dicyanide, reference compound]
inhibition of Wnt signaling (Wnt signaling [1]; concentration not given): inhibited Wnt signaling
AMPK activation (AMPK): strongly activated AMPK
rate of ATP production in mitochondria ([2]; 1 μM, control): decreased the rates of ATP production in mitochondria
uncoupling: OCR inhibited by oligomycin (DLD-1 cells; 1 μM, control): increased OCR inhibited by oligomycin
uncoupling: OCR blocked by oligomycin ([3]; control, 1 μM): rescued

O=C1[C@H](Cc2ccc(O)cc2)N2C(=O)CCN(C(=O)NCc3ccccc3)[C@H]2CN1Cc1cccc2ccccc12 [ICG-001, (6S,9aS)—N-benzyl-6-(4-hydroxybenzyl)-8-(naphthalen-1-ylmethyl)-4,7-dioxohexahydro-2H-pyrazino[1,2-c]pyrimidine-1(6H)-carboxamide, reference compound]
inhibition of Wnt signaling (Wnt signaling [1]; concentration not given): only inhibited Wnt signaling
AMPK activation (AMPK): no effect on AMPK

Cc1cc([N+](=O)[O-])ccc1N(C)S(=O)(=O)c1cc(Cl)ccc1Cl [FH535-M, 2,5-dichloro-N-methyl-N-(2-methyl-4-nitrophenyl)benzenesulfonamide]
inhibition of Wnt signaling (Wnt signaling [1]; 3 μM): lost activities
AMPK activity (T172 phosphorylation) (AMPK): lost activities
uncoupling: OCR inhibited by oligomycin (DLD-1 cells; testing compound 3 μM): no longer functioned as a mitochondrial uncoupler
uncoupling: OCR blocked by oligomycin ([3]; 5 μM/1 μM): inactive

O=C(Nc1ccc(C(F)(F)F)cc1)Nc1cc(F)c(F)c(F)c1 [FDN-4E, 1-(4-(trifluoromethyl)phenyl)-3-(3,4,5-trifluorophenyl)urea]
inhibition of Wnt signaling (Wnt signaling [1]; concentration not given): inhibited Wnt signaling
TOPFlash and FOPFlash activity (Wnt signaling [4]): inhibited TOPFlash but not FOPFlash activity
proliferation of colon cancer cells [5]: inhibited the proliferation of colon cancer cells at sub-micromolar concentrations
Wnt target genes (Wnt target genes): inhibited Wnt target genes
ACC (S79 phosphorylation) (AMPK): inhibited ACC
AMPK activity (T172 phosphorylation) (AMPK): increased AMPK activity

CN(c1ccc([N+](=O)[O-])c2ccccc12)S(=O)(=O)c1cc(Cl)ccc1Cl [Y3-M, 2,5-dichloro-N-methyl-N-(4-nitronaphthalen-1-yl)benzenesulfonamide]
inhibition of Wnt signaling (Wnt signaling [1]; 3 μM): lost activities
AMPK activity (T172 phosphorylation) (AMPK): lost activities
uncoupling: OCR inhibited by oligomycin (DLD-1 cells; testing compound 3 μM): failed as a mitochondrial uncoupler
uncoupling: OCR blocked by oligomycin ([3]; 5 μM/1 μM): inactive

C=C(C)[C@H]1Cc2c(ccc3c2O[C@@H]2COc4cc(OC)c(OC)cc4[C@@H]2C3=O)O1 [rotenone, reference compound]
inhibition of Wnt signaling (Wnt signaling [1]; concentration not given): inhibited Wnt signaling
AMPK activation (AMPK): activated AMPK
oxidative phosphorylation (DLD-1 cells): inhibited oxidative phosphorylation

O=C(Nc1nnc(C(F)(F)F)s1)NC(CC(F)(F)F)(C(F)(F)F)C(F)(F)F [FTU-11, 1-(1,1,1,4,4,4-hexafluoro-2-(trifluoromethyl)butan-2-yl)-3-(5-(trifluoromethyl)-1,3,4-thiadiazol-2-yl)urea]
concentration at which Wnt signaling was inhibited (Wnt signaling [1]; 96-well assay using stable cell line): 0.5 mM
TOPFlash and FOPFlash activity (Wnt signaling [4]): inhibited TOPFlash but not FOPFlash activity
proliferation of colon cancer cells [5]: inhibited the proliferation of colon cancer cells at sub-micromolar concentrations
Wnt target genes (Wnt target genes): inhibited Wnt target genes
ACC (S79 phosphorylation) (AMPK): inhibited ACC
AMPK activity (T172 phosphorylation) (AMPK): increased AMPK activity
AMPK activation (AMPK): equal in potency to FDN-4E
rate of ATP production in mitochondria ([2]; 3 μM): decreased the rates of ATP production in mitochondria
mitochondrial membrane potential [6]: reduced mitochondrial membrane potential
mitochondrial membrane potential ([6]; listed as FTC-11): significantly reduced the membrane potential of mitochondria
uncoupling: OCR inhibited by oligomycin (DLD-1 cells; testing compound 3 μM): increased OCR inhibited by oligomycin

O=CC[C@@H](O)[C@H](O)[C@H](O)CO [2-DG, 2-deoxy-D-glucose]
inhibition of Wnt signaling (Wnt signaling [1]; concentration not given): inhibited Wnt signaling
AMPK activation (AMPK): activated AMPK
ATP levels (LS174T cells): reduced ATP levels

N#Cc1c(O)c2c(-c3ccc(-c4ccccc4O)cc3)csc2[nH]c1=O [A769662, 4-hydroxy-3-(2′-hydroxy-[1,1′-biphenyl]-4-yl)-6-oxo-6,7-dihydrothieno[2,3-b]pyridine-5-carbonitrile, reference compound]
inhibition of Wnt signaling (Wnt signaling [1]; 10 μM): did not inhibit Wnt signaling
AMPK activity (ACC S79 phosphorylation) (AMPK; without affecting AMPK phosphorylation): Increased AMPK activity

antimycin [reference compound]
inhibition of Wnt signaling (Wnt signaling [1]; concentration not given): inhibited Wnt signaling
AMPK activation (AMPK): activated AMPK
oxidative phosphorylation (DLD-1 cells): inhibited oxidative phosphorylation

CC[C@H]1/C=C/C=C/C[C@@H](C)[C@H](O)[C@@](C)(O)C(=O)[C@@H](C)[C@H](O)[C@@H](C)C(=O)[C@@H](C)[C@H](O)[C@@H](C)/C=C/C(=O)O[C@@H]2[C@H](C)[C@H](CC1)O[C@]1(CC[C@H](C)[C@H](C[C@@H](C)O)O1)[C@H]2C [oligomycin, reference compound]
inhibition of Wnt signaling (Wnt signaling [1]; concentration not given): inhibited Wnt signaling
AMPK activation (AMPK): activated AMPK
oxidative phosphorylation (DLD-1 cells): inhibited oxidative phosphorylation

c1cc(-c2cnn3cc(-c4ccc(OCCN5CCOCC5)cc4)cnc23)ccn1 [Compound C, 4-(2-(4-(3-(pyridin-4-yl)pyrazolo[1,5-a]pyrimidin-6-yl)phenoxy)ethyl)morpholine, reference compound]
rescue of Wnt signaling inhibited by FTU-11 (3 μM) and FDN-4E (3 μM) (Wnt signaling [1]; 5 μM): no effect
urea-induced AMPK phosphorylation and ACC phosphorylation (AMPK; 5 μM): decreased
